The source of these data is patent publication US20130225641A1, “ANTICANCER COMPOUNDS AND PREPARATION METHODS THEREOF” (priority 2010, published 2013).

One series relates to SKOV3. As to the kind of experiment: MTT cytotoxicity, SKOV3. The series is classed as cell-based. Conditions: Homo sapiens, SK-OV-3, SKOV3, Ovarian, 72 hrs, read-out: LC50 (the source's name). As to the method: (§1) The cytotoxicity of ZTP and ZTQ was analyzed by using human tumor cell lines. Human tumor cell lines were purchased from ATCC and NCI, and cultured in DMEM medium containing 10% FBS at 37° C. in 5% CO2 in an incubator. The cells grown to confluence were used for cytotoxicity analysis. The cells were digested with trypsin, washed with the culture medium, and then counted. 33 tumor cell lines were cultured. The cells were seeded at a density of 3000-6000 cells/well in a 96-well plate and incubated for 16-24 hrs. Then, various concentrations of ZTP or ZTQ dissolved in DMSO were added, and cultured for 72 hrs. The drug-treated cells and control cells were analyzed by MTT.

Another series has as its system EC109. Briefly: MTT cytotoxicity, EC109. It counts as cell-based. Conditions: Homo sapiens, ECa-109, EC109, Esophageal, 72 hrs, read-out: LC50 (the source's name). As to the method: as §1
Another series concerns LnCAP. Briefly: MTT cytotoxicity, LnCAP. It counts as cell-based. The following applies: Homo sapiens, Prostatic, 72 hrs, read-out: LC50 (the source's name). On the procedure: as §1
A further series concerns CNE-2Z. Briefly: MTT cytotoxicity, CNE-2Z. It counts as cell-based. Conditions: Homo sapiens, CNE2Z, Nasopharyngeal, 72 hrs, read-out: LC50 (the source's name). On the procedure:
as §1

Another series has as its system SK-MEL-5. As to the kind of experiment: MTT cytotoxicity, SK-MEL-5. It counts as cell-based. The following applies: Homo sapiens, SK-MEL-5, Skin (melanoma), 72 hrs, read-out: LC50 (the source's name). As to the method:
as §1

Series [1] in a line: Pharmacokinetic study in mice. The series is classed as in vivo. The following applies: both sexes, mouse, po, BALB/c mice, single dose of 100 mg/kg orally by gavage, plasma, Mean +/− SD; for half-life: read-out: T½ (converted). As to the method:
BALB/c mice (2 males and 2 females) of 8 weeks old were administered with the compounds ZTP and ZTQ (formulated with 15% Captsol or a carrier) at a single dose of 100 mg/kg. 0.5, 1, 3, 6, 12, 24, 48, and 72 hrs after administration, blood was taken from ophthalmic vein and plasma was prepared therefrom, to determine the plasma concentrations of ZTP and ZTQ. The pharmacokinetic parameters of the compounds ZTP and ZTQ given orally by gavage in the 4 mice are summarized as below (Tables 2 and 3): […]

The test system of series [2] is human liver cancer cells (HepG3B). As to the kind of experiment: Transplantation model of human liver cancer (HepG3B) in nude mice. The following applies: HepG3B subcutaneous in nude mice; oral daily 5 days/week, 3 weeks; ZTP 30 mg/kg, ZTQ 60 mg/kg; lower = stronger. It counts as in vivo, nude mice (nu/nu). On the procedure: T-cell deficient nude mice (nu/nu) of 6 weeks old were purchased from Charles River Laboratory, and housed and treated in a sterile environment following Institutional Animal Care & Use Committee Program. 48 mice were respectively subcutaneously inoculated on ribbed belly with 5×10^6 human liver cancer cells (HepG3B), human lung caner cells (NCI-H23), and human colon cancer cells (HCT-116) suspended in 0.2 ml HBSS/matrigel (50:50, V/V). When the tumor grew to have an average diameter of 7-8 mm and a volume of about 100-200 mm^3, 24 mice were picked up, and assigned to treatment groups (16 animals/2 groups), and a control group (8 animals). The 2 treatment groups were administered with the compounds ZTP and ZTQ dissolved in 15% Captsol respectively at a dose of 30 mg/kg and 60 mg/kg, and the control group only received an excipient (15% Captsol).
The same number of mice of each type was assigned to the control group and the treatment groups with the compounds ZTP and ZTQ respectively.
The dose schedule of the test compounds in the tumor transplanted nude mice was as follows: the compounds ZTP and ZTQ dissolved in 15% Captsol were daily orally administered as a 200 μl solution containing 0.75 mg of ZTP and 1.5 mg of ZTQ for 5 days/week over 3 consecutive weeks, followed by one-week break; and the control group was only administered with 200 μl of the placebo (15% Captsol) for 3 weeks, followed by 1 week of break. The two groups of animals were housed separately, and allowed to free access to food.
Evaluation of antitumor effect: the tumor size was measured every 3 or 4 days. The tumor volume was calculated using the equation below: […], in which a denotes the width (the shorter diameter), and b denotes the length (the longer diameter). Relative tumor volume (RTV) of each tumor refers to the ratio of the volume at a specified time to that at the beginning of the treatment. The average RTV for each treatment group was calculated. The antitumor activity was determined by calculating the tumor growth inhibition using a formula below. […]

For a further series, the system named is Mid PaCa-2. Briefly: MTT cytotoxicity, Mid PaCa-2. It counts as cell-based. The following applies: Homo sapiens, Mid PaCa-2, Pancreatic, 72 hrs, read-out: LC50 (the source's name). As to the method:
as §1

A further series relates to HCT-116. As to the kind of experiment: MTT cytotoxicity, HCT-116. It counts as cell-based. The following applies: Homo sapiens, HCT-116, Colonic, 72 hrs, read-out: LC50 (the source's name). As to the method: as §1
For another series, the system named is U-251. Briefly: MTT cytotoxicity, U-251. The series is classed as cell-based. Conditions: Homo sapiens, U-251, Glioblastoma, 72 hrs, read-out: LC50 (the source's name). On the procedure: as §1
The subject of a further series is CCL-247. As to the kind of experiment: MTT cytotoxicity, CCL-247. The series is classed as cell-based. Conditions: Homo sapiens, CCL-247, Colonic, 72 hrs, read-out: LC50 (the source's name). On the procedure: as §1
The next series relates to ACHN. As to the kind of experiment: MTT cytotoxicity, ACHN. The series is classed as cell-based. Conditions: Homo sapiens, Renal, 72 hrs, read-out: LC50 (the source's name). As to the method: as §1
A further series has as its system NCI-H23. Briefly: MTT cytotoxicity, NCI-H23. The series is classed as cell-based. The following applies: Homo sapiens, NCI-H23, Lung, 72 hrs, read-out: LC50 (the source's name). On the procedure:
as §1

The test system of a further series is 786-O. As to the kind of experiment: MTT cytotoxicity, 786-O. The series is classed as cell-based. Conditions: Homo sapiens, 786-0, Renal, 72 hrs, read-out: LC50 (the source's name). As to the method: as §1
The next series concerns MDA-MB-435. Briefly: MTT cytotoxicity, MDA-MB-435. It counts as cell-based. The following applies: Homo sapiens, MDA-MB-435, Breast, 72 hrs, read-out: LC50 (the source's name). On the procedure:
as §1

Series [3] is described as follows: Acute toxicity studies in mice. The series is classed as in vivo. The following applies: for death of test mice: single dose of 500 mg/kg and divided doses of 100 mg/kg. The text has this:
After tests, the mice were sacrificed for pathological analysis.

[4] abbreviates: divided doses of 100 mg/kg, observed 4 weeks.
Setting [5] is: single dose of 500 mg/kg, observed 1 week.

One may read the Cmax as the highest concentration seen after dosing. As a reminder, the Tmax is the time at which the peak concentration occurs. Take `CNC(=O)c1cc(Sc2ccc(NC(=S)Nc3ccc(Cl)c(C(F)(F)F)c3)cc2)ccn1` [ZTQ, N-[4-chloro-3-(trifluoromethyl)phenyl]-[4-(N-methyl-formamide)(4-pyridylthio)phenyl]-thiourea]: the CC50 in the series with SKOV3 was 980 nM; with EC109, 1120 nM; with LnCAP, 820 nM; in the series with CNE-2Z it was 1310 nM; in the series on SK-MEL-5, 1540 nM; with Mid PaCa-2, 910 nM. In addition, the CC50 in the series on HCT-116 came to 760 nM; in the series with U-251 it was 2500 nM; with CCL-247, 1700 nM; in the series on ACHN, 1210 nM; in the series on NCI-H23 it was 710 nM; with 786-O it was 1260 nM. Moreover, the CC50 in the series on MDA-MB-435 is 1120 nM. In series [1], this compound returned a Cmax of 52 µM. The Tmax in series [1] is 6.6 h. The half-life in [1] was 4.2 h. In series [2], the “TGI (T/C×100)” value is recorded as 1.75%. The acute toxicity result in series [3] (setting [4]) and in [3] (setting [5]) was “no obvious toxicity” in each case. In addition, in [3], the “death of test mice” value is on record as “no death occurs”.

With `CNC(=O)c1cc(Oc2ccc(NC(=S)Nc3ccc(Cl)c(C(F)(F)F)c3)cc2)ccn1` [ZTP, N-[4-chloro-3-(trifluoromethyl)phenyl]-[4-(N-methyl-formamide)(4-pyridyloxy)phenyl]-thiourea], the CC50 with SKOV3 turned out to be 1190 nM; in the series with EC109 it was 1480 nM; in the series with LnCAP it was 1050 nM; in the series with CNE-2Z it was 1890 nM; in the series with SK-MEL-5 it was 1990 nM; in the series with Mid PaCa-2, 1250 nM. The CC50 in the series on HCT-116 came to 870 nM; in the series on U-251, 3670 nM; with CCL-247, 2410 nM; in the series on ACHN, 1610 nM; with NCI-H23, 890 nM; with 786-O, 1750 nM. In the series on MDA-MB-435, the CC50 came out at 1370 nM. The compound further yielded a Cmax in [1] of 51 µM. Besides, the Tmax in series [1] was found to be 6.4 h. Further, the half-life in series [1] was 4.1 h. Besides, the “TGI (T/C×100)” value in [2] was 13%. Moreover, the acute toxicity result in series [3] (setting [4]) and in series [3] (setting [5]) was “no obvious toxicity” each time. For the same compound, in series [3], the “death of test mice” value is listed as “no death occurs”.
